Results reported in ChEMBL document CHEMBL4706575, “Nonpeptidic quinazolinone derivatives as dual nucleotide-binding oligomerization domain-like receptor 1/2 antagonists for adjuvant cancer chemotherapy” (Eur J Med Chem, 2020).

Experiments:
[1] = target: T1, Nucleotide-binding oligomerization domain-containing protein 1 (Homo sapiens, UniProt Q9Y239); assay: Antagonist activity at recombinant human NOD1 expressed in HEK293 cells assessed as inhibition of C12-iE-DAP-induced IL8 release measured after 24 hrs by HTRF assay; format: cell-based
T1 sequence (Q9Y239 whole entry): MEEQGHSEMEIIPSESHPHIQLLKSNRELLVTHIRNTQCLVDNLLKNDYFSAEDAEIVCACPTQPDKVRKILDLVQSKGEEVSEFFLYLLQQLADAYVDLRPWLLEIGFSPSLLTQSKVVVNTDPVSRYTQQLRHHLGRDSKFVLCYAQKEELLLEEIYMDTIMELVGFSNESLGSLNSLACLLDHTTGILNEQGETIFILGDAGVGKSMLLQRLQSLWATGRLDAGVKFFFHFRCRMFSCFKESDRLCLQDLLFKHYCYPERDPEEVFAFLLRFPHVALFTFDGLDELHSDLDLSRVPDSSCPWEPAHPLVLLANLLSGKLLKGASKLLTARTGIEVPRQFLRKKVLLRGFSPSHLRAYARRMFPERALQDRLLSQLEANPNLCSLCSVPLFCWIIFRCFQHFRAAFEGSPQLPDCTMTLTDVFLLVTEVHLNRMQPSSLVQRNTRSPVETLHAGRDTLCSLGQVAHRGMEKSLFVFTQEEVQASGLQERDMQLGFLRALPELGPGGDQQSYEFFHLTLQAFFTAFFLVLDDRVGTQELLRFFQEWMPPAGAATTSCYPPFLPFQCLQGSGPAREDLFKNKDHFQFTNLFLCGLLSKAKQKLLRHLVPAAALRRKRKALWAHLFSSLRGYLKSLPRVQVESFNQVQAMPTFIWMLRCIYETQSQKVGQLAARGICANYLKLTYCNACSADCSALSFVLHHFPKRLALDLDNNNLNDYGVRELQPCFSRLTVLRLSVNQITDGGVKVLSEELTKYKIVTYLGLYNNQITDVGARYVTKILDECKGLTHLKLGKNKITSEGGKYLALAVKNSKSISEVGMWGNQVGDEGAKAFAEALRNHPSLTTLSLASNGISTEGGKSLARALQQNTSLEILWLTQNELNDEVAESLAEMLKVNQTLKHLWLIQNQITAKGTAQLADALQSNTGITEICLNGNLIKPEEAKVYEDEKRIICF

[2] = target: Nucleotide-binding oligomerization domain-containing protein 2 (Homo sapiens, UniProt Q9HC29); assay: Antagonist activity at recombinant human NOD2 expressed in HEK293 cells assessed as inhibition of MDP-induced IL8 release measured after 24 hrs by HTRF assay; format: cell-based
Chain of Nucleotide-binding oligomerization domain-containing protein 2 (Q9HC29 whole entry, the tested form may be a part): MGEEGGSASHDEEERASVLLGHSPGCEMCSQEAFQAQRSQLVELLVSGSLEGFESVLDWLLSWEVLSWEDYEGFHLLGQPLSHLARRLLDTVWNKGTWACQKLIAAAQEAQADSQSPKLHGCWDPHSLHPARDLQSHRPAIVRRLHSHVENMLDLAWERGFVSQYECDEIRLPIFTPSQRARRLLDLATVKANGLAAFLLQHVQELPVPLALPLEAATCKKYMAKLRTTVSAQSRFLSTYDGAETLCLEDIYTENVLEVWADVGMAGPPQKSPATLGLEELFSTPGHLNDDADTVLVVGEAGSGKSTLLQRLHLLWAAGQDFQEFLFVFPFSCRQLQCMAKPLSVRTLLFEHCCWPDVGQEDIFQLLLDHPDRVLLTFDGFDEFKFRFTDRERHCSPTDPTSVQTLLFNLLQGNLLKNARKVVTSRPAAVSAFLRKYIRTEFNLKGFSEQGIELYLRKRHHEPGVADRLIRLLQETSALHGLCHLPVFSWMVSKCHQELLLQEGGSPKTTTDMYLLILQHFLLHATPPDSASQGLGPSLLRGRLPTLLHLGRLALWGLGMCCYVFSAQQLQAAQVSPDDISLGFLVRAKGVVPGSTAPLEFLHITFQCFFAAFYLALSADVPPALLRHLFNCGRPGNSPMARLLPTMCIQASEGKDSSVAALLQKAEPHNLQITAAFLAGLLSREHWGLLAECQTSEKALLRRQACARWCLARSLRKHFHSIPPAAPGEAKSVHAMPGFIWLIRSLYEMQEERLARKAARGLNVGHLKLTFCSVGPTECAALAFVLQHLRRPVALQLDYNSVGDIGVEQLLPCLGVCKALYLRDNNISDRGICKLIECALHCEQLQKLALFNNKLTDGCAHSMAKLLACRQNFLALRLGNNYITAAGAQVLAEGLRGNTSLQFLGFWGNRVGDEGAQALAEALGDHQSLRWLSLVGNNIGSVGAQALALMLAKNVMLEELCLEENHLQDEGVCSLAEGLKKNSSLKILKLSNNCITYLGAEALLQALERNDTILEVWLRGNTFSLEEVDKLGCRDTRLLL

IC50 [1]: > 50 µM
IC50 [2]: 3.3 µM
Structure (SMILES): O=C(Cn1c(CCNC(=O)c2ccccc2)nc2ccccc21)Nc1ccc2c(c1)CCC2
